Calls of active or inactive are those of the source.
Experiments:
[1] = A Cell Based Secondary Assay To Explore Cytotoxicity of Compounds that Sensitize Mycobacterium Tuberculosis to Beta-Lactam Antibiotics.; assay type: functional
Prothrombin = Prothrombin (Bos taurus, UniProt P00735); test: thrombin inhibition, dose response, biochemical, fluorescence polarization, uHTS hits (AID 602369); assay type: functional
NS3 = NS3 (Hepatitis C virus, UniProt A3EZJ3); test: PubChem AID 2173; parameters: species or system Hepacivirus hominis
[2] = target: 26S proteasome non-ATPase regulatory subunit 14 (Homo sapiens, UniProt O00487); test: inhibition of proteasome subunit RPN11 – biochemical, fluorescence polarization, uHTS hits, confirmation (AID 602368); assay type: functional
[3] = target: 72 kDa type IV collagenase (Homo sapiens, UniProt P08253); test: Dose Response validation of uHTS RPN11 inhibitor hits using a MMP-2 Fluorescence assay.; assay type: functional
Cytochrome P450 2C19 = Cytochrome P450 2C19 (Homo sapiens, UniProt P33261); test: Cytochrome panel assay with activity outcomes. Panel member name: p450-cyp2c19 Compounds with AC50 equal or less than 10 uM are considered active; assay type: functional; conditions: read-out: AC50
Cytochrome P450 3A4 = Cytochrome P450 3A4 (Homo sapiens, UniProt P08684);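 note: CYP3A4 tested as one member of a cytochrome P450 panel screen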
[4] = target: Induced myeloid leukemia cell differentiation protein Mcl-1 (Homo sapiens, UniProt Q07820); assay type: functional
[5] = target: T1, Voltage-gated N-type calcium channel alpha-1B subunit/Amyloid beta A4 precursor protein-binding family A member 1 (Homo sapiens, UniProt Q00975+Q02410); assay type: protein assay
[6] = target: T1, Voltage-gated N-type calcium channel alpha-1B subunit/Amyloid beta A4 precursor protein-binding family A member 1; assay type: protein assay; remark: listed apart in the source
[7] = cytotoxicity in HPDE-C7 cells, cell-based, fluorescence, HTS (AID 430); assay type: functional; conditions: Homo sapiens
[8] = cytotoxicity in KRAS-transformed pancreatic duct cells, primary screen, cell-based, fluorescence, HTS (AID 431); assay type: functional; conditions: Homo sapiens;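 note: cell line used: HPDE-C7K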
INS1 = test: beta cell apoptosis inhibitors, cytokine rescue, dose response, luminescence, retest (AID 449756); assay type: functional, cell-based; conditions: Rattus norvegicus;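 note: cell death triggered by IL-1 beta plus TNF-alpha plus IFN-gamma mixture; protective hits raise ATP signal compared with cytokine alone wells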
Vero [9] = test: cells; assay type: functional; conditions: Chlorocebus sabaeus
Vero [10] = test: Vero cell cytotoxicity, cytotoxicity control for flavivirus capping enzyme inhibitors (AID 588742); assay type: functional; conditions: Chlorocebus sabaeus
CAAX prenyl protease 2 = target: T2, CAAX prenyl protease 2 (Saccharomyces cerevisiae S288c, UniProt Q03530); assay type: biochemical
T2 sequence (Q03530 whole entry): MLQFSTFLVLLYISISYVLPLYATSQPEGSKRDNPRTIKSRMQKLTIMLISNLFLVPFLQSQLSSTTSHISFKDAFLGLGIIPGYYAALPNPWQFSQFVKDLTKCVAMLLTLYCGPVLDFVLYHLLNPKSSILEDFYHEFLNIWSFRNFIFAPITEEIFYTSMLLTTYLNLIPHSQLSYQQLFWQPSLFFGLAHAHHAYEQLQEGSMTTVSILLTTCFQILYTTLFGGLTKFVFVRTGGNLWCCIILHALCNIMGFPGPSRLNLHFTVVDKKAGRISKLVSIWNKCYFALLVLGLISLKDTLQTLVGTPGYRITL

Sequence of NS3 (A3EZJ3 whole entry): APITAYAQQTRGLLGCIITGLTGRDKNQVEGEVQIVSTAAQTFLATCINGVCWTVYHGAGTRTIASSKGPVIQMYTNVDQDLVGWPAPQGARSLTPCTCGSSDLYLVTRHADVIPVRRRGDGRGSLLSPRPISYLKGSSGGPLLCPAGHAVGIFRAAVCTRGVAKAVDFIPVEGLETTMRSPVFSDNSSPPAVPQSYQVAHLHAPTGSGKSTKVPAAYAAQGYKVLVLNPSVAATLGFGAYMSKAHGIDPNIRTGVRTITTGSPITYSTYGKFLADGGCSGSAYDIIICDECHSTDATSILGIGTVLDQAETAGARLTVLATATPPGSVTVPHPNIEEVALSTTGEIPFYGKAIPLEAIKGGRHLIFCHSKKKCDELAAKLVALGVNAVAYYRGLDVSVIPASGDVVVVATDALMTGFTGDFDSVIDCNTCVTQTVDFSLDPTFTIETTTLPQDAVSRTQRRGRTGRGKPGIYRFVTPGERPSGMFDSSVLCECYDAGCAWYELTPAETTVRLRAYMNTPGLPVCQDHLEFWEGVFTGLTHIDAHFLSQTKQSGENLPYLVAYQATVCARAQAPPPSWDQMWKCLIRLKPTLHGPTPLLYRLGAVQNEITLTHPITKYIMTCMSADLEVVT
Sequence of Induced myeloid leukemia cell differentiation protein Mcl-1 (Q07820 whole entry): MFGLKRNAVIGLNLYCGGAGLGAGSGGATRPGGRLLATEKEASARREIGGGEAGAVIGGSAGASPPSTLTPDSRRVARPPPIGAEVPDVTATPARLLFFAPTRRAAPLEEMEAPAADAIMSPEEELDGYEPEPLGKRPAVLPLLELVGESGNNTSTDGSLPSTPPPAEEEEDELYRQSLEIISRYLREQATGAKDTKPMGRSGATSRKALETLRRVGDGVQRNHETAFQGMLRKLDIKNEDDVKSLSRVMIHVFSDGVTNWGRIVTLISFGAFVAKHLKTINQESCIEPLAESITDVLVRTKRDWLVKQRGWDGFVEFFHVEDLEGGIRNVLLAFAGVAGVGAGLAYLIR
T1 sequence (Q00975 whole entry): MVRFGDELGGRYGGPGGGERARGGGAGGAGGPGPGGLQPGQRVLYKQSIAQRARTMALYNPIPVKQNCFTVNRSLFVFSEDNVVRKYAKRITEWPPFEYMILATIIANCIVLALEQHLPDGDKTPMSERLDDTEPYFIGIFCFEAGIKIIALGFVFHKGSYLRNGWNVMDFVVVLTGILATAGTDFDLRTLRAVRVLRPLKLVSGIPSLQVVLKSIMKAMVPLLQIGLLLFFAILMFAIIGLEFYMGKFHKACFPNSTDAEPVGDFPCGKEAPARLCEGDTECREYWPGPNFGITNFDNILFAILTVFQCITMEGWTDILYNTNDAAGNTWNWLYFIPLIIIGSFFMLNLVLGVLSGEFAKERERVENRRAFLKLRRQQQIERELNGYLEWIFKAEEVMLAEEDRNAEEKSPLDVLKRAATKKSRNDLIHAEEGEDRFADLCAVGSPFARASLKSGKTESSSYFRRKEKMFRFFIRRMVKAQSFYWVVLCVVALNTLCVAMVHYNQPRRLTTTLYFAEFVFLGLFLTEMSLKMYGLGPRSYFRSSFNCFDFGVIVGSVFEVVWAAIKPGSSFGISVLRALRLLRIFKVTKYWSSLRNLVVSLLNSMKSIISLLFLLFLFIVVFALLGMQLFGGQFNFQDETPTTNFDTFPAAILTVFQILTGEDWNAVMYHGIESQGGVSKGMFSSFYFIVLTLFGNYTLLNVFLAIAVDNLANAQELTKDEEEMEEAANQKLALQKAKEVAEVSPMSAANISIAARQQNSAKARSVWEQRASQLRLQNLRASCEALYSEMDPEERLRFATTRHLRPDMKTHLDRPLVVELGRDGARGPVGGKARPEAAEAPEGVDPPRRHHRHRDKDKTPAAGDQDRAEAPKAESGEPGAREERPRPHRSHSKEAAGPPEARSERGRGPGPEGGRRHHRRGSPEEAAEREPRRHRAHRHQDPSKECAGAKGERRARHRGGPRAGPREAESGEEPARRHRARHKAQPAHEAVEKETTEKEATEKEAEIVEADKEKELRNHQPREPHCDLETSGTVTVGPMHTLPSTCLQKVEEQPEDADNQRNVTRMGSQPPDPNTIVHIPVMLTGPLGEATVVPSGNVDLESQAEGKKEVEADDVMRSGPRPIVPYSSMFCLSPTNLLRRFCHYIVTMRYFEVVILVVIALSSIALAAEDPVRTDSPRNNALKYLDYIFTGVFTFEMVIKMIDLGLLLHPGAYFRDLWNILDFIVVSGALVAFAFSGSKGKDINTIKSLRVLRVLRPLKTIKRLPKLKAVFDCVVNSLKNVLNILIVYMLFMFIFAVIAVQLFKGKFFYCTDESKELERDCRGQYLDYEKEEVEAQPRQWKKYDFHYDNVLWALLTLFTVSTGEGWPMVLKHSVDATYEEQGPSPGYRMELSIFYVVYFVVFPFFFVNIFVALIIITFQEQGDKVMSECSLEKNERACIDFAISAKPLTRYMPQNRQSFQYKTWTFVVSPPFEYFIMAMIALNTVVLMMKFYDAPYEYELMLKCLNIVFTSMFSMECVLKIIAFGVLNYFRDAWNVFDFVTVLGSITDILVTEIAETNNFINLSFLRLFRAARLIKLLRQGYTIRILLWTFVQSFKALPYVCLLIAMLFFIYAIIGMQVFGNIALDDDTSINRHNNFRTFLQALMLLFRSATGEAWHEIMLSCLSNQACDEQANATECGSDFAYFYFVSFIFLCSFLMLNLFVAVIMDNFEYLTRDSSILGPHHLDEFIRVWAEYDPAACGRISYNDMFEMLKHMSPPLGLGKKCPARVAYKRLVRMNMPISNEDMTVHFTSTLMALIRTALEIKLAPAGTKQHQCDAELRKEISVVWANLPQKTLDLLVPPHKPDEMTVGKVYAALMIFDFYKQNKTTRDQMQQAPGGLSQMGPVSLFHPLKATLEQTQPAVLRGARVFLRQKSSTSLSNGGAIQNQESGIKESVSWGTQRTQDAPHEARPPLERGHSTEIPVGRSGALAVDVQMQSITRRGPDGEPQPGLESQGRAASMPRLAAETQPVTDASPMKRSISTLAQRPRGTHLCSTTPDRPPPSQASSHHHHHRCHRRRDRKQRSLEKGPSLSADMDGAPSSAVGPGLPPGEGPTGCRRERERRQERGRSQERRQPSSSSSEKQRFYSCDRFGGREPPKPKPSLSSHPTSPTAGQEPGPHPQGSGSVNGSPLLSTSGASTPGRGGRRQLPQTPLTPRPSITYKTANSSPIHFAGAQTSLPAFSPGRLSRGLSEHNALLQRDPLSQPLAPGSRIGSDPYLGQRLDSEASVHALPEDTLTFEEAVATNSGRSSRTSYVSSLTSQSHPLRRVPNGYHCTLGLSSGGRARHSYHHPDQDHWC
T1 sequence (Q02410 whole entry): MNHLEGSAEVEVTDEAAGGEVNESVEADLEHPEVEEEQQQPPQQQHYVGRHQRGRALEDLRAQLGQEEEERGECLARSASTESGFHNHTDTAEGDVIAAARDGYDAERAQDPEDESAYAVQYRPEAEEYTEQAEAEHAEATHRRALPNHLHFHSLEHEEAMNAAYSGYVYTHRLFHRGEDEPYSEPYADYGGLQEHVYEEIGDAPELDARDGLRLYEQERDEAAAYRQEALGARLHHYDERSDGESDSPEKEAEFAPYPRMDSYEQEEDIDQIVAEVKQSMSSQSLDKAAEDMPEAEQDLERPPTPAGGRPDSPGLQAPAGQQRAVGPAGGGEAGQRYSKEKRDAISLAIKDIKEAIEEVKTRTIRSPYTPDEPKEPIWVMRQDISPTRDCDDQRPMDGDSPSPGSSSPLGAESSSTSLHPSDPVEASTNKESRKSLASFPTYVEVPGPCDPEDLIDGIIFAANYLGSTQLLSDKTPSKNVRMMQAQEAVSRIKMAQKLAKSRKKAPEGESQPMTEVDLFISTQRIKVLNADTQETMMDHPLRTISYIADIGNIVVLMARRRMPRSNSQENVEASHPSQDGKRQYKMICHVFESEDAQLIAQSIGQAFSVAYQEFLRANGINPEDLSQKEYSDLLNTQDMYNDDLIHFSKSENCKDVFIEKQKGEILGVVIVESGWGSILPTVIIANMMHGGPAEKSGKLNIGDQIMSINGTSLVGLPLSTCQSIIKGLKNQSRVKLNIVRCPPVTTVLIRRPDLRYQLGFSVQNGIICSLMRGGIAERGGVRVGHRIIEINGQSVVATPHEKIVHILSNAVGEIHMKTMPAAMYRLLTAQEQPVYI
Sequence of Cytochrome P450 3A4 (P08684 whole entry): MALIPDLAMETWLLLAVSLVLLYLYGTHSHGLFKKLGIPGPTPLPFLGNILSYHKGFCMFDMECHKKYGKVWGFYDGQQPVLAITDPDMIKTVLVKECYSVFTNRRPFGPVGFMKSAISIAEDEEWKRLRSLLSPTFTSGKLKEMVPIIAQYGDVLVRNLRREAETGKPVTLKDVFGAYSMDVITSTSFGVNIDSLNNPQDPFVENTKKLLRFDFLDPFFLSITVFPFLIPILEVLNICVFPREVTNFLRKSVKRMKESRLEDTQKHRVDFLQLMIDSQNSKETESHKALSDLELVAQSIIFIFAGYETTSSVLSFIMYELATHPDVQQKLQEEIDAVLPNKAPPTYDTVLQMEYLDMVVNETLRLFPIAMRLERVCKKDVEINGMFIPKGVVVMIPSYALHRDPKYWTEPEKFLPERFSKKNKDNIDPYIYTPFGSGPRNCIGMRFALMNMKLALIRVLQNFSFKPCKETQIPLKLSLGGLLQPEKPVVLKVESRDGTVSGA
Sequence of 26S proteasome non-ATPase regulatory subunit 14 (O00487 whole entry): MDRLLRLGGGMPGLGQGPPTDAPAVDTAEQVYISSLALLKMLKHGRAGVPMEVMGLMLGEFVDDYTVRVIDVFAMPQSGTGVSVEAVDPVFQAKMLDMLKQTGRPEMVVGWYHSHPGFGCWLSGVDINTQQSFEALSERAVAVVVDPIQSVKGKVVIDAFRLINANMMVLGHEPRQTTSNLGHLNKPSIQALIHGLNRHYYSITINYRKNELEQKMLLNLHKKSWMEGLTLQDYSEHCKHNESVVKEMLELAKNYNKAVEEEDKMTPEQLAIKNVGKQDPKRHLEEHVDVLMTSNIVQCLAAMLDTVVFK

Which CC50 [1] does the source give for `Cc1cc(C(=O)CN2C(=O)NC(c3ccccc3)(c3ccccc3)C2=O)c(C)n1Cc1ccccc1` here?
Its CC50 is > 40 µM (active).

With `COc1cc2cc3c(N)c(C(=O)Nc4sc(C)c(C)c4C#N)sc3nc2cc1OC` as the molecule, how does the IC50 (Prothrombin) read?
Its IC50 is 25.8 µM (active).

What about the IC50 (NS3) of the same molecule?
Its IC50 is > 36.3 µM (not active).

And the IC50 [2]?
Its IC50 is 48.3 µM (active).

And the IC50 [3]?
The IC50 was 8.14 µM (active).

And the AC50 (Cytochrome P450 2C19)?
Its AC50 is 15.8 µM (inconclusive).

And the AC50 (Cytochrome P450 3A4)?
The AC50 was 8.91 µM (inconclusive).

What about the IC50 [4] of the same molecule?
The IC50 was 1.26 µM (active).

What about the IC50 [5] of the same molecule?
Its IC50 is > 50 µM (inactive).

What about the IC50 [6] of the same molecule?
The IC50 was 11.8 µM (active).

With `O=C(CCC(=O)N1CCN(C2CCCC2)CC1)Nc1nnc(C(F)(F)F)s1` as the molecule, how does the EC50 [7] read?
Its EC50 is > 20 µM (not active).

And the EC50 [8]?
Its EC50 is > 20 µM (not active).

With `COc1ccccc1NC(=O)c1cc2cc(Br)ccc2cc1O` as the molecule, how does the AC50 (INS1) read?
The AC50 was 6.21 µM (active).

And the IC50 (NS3)?
Its IC50 is > 4.03 µM (active).

What about the CC50 (Vero [9]) of the same molecule?
Its CC50 is 2.72 µM (active).

And the CC50 (Vero [10])?
Its CC50 is 4.04 µM (active).

What about the IC50 [4] of the same molecule?
Its IC50 is 2.63 µM (active).

Which AC50 (CAAX prenyl protease 2) does the source give for `CCCCOc1ccc(-c2cc(C(F)(F)F)c(C#N)c(SCC(=O)O)n2)cc1` here?
The AC50 was 25.4 µM (active).

What about the IC50 (NS3) of the same molecule?
The IC50 was 1.98 µM (active).

For `COc1cc2nc(N3CCN(C(=O)OCc4ccccc4)[C@H](C(=O)NC(C)(C)C)C3)nc(N)c2cc1OC`, which CC50 [1] is on record?
The CC50 was 29.3 µM (active).

From ChEMBL document CHEMBL1201862, “PubChem BioAssay data set” (2004)
